Tests used:
[1] = tested on: B. subtilis, S. aureus, S. pyogenes, Staphylococcus saprophyticus, E. coli, P. aeruginosa and Shigella sonnei; parameters: method as in PMID 23684720; conditions: ref 37; cited from earlier work
E. aerogenes ATCC 13048 = assay: Broth microdilution assay, E. aerogenes; assay type: cell-based, Enterobacter aerogenes; conditions: 50 µM, 24 h, inhibition of growth, mean ± SD
Outline: (§1)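 Broth microdilution per CLSI/EUCAST in Mueller Hinton II broth, 5×10^5 cfu/mL, 24 h at 37°C with agitation; growth by absorbance at 620 nm versus controls. Compounds first screened at 50 µM.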

S. aureus ATCC 25923 = assay: Broth microdilution assay, S. aureus; assay type: cell-based, Staphylococcus aureus; conditions: 50 µM, 24 h, inhibition of growth, mean ± SD
Outline: as §1

[2] = tested on: all microbial strains tested; assay: Primary antimicrobial screening, all strains; assay type: cell-based; conditions: 50 µM
From the text: Gram-negative strains Escherichia coli (ATCC 25922), Enterobacter aerogenes (ATCC 13048) and Pseudomonas aeruginosa (ATCC 27853), Gram-positive strains Staphylococcus aureus (ATCC 25923) and Enterococcus faecalis (ATCC 29212), and fungal strain Candida albicans (ATCC 90028) were obtained from Microbiologics Inc., and used for the antimicrobial screening. Strains were selected according to the guidelines set for clinical laboratories by Clinical and Laboratory Standards Institute [CLSI, formerly National Committee on Clinical Laboratory Standards [22]] and the European Committee on Antimicrobial Susceptibility Testing (EUCAST). Bacterial strains were grown on Mueller Hinton II Agar (MHA) (BBL, BD) and Mueller Hinton II broth (MHB) (BBL, BD), whereas Candida was initiated on Sabouraud Dextrose Agar (SDA) (Difco, BD) plates. Media were prepared into MilliQ water according to manufacturer’s instruction and autoclaved at 121°C for 15 min. Bacteria were plated on MHA plates and incubated at 37°C for 16–18 h. […] Absorbance was measured at 620 nm with Victor plate reader (Wallac 1420, Perkin Elmer) at 0, 4 and 24 h with the bacteria, and at 0, 24 and 48 h with Candida. The antimicrobial activity of the samples was calculated from the absorbance values by comparing to the controls, and expressed as a percentage inhibition of growth. […]

P. aeruginosa ATCC 27853 = assay: Broth microdilution assay, P. aeruginosa; assay type: cell-based, Pseudomonas aeruginosa; conditions: 50 µM, 24 h, inhibition of growth, mean ± SD
Outline: as §1

Huh-7 cells = assay: in vitro; assay type: cell-based, human; conditions: 50 µM, 24 h exposure, ATP content, 5% FBS
Outline: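 Cytotoxicity read-out: intracellular ATP (CellTiter-Glo luminescence) in Huh-7 hepatoma cells seeded at 20000 cells/well, cultured overnight, then exposed to compounds for 24 h at 37°C in 5% FBS medium. Polymyxin B sulphate (15000 IU/mL) served as positive control.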

E. faecalis ATCC 29212 = assay: Broth microdilution assay, E. faecalis; assay type: cell-based, Enterococcus faecalis; conditions: 50 µM, 24 h, inhibition of growth, mean ± SD
Outline: as §1

C. albicans ATCC 90028 = assay: Broth microdilution assay, C. albicans; assay type: cell-based, Candida albicans; conditions: 50 µM, 48 h at 35°C, inhibition of growth, mean ± SD
Outline: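 Candida albicans ATCC 90028 was grown on Sabouraud Dextrose Agar at 27°C for 16–18 h, then suspended in sterile 0.9% saline. Broth microdilution in clear 96-well plates mixed equal volumes of yeast suspension and diluted sample. Plates were incubated with agitation at 35°C for 48 h. Absorbance at 620 nm was read at 0, 24 and 48 h, and growth inhibition was expressed as a percentage relative to controls.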

E. coli ATCC 25922 = assay: Broth microdilution assay, E. coli; assay type: cell-based, Escherichia coli; conditions: 50 µM, 24 h, inhibition of growth, mean ± SD
Outline: as §1

[3] = tested on: S. aureus and E. faecalis; parameters: method as in PMID 18835348; conditions: ref 36; cited from earlier work

SMILES	MIC against a panel of seven different bacterial species [1] [µg/mL]	Inhibitory effect (%) E. aerogenes ATCC 13048 (E. aerogenes ATCC 13048) [%]	Inhibitory effect (%) S. aureus ATCC 25923 (S. aureus ATCC 25923) [%]	Activity against all microbial strains tested [2]	Inhibitory effect (%) P. aeruginosa ATCC 27853 (P. aeruginosa ATCC 27853) [%]	Cytotoxicity (%) Huh-7 cells (Huh-7 cells) [%]	Inhibitory effect (%) E. faecalis ATCC 29212 (E. faecalis ATCC 29212) [%]	Inhibitory effect (%) C. albicans ATCC 90028 (C. albicans ATCC 90028) [%]	Inhibitory effect (%) E. coli ATCC 25922 (E. coli ATCC 25922) [%]	MIC against S. aureus and E. faecalis [3] [µg/mL]
CC1(C)C=C2[C@H]3CC[C@@H]4[C@@]5(C)CC[C@H](O)C(C)(C)[C@@H]5CC[C@@]4(C)[C@]3(C)CC[C@@]2(C(=O)O)CC1 [MA, morolic acid]	≥ 100									
C=C(C)C1CCC2(COC(C)=O)CCC3(C)C(CCC4C5(C)CCC(=O)C(C)(C)C5CCC43C)C12 (stereo not drawn) [Compound 21]		12.6±6.2	0.7±3.4	inactive	4.7±2.0	-3.9±1.1	5.7±13.4	-13.9±24.7	2.6±1.8	
C=C(C)C1CCC2(COC(C)=O)CCC3(C)C(CCC4C5(C)CCC(OC(C)=O)C(C)(C)C5CCC43C)C12 (stereo not drawn) [Compound 14]		8.1±9.0	13.8±3.2	inactive	3.9±0.6	-11.1±3.8	22.8±17.5	-1.1±18.3	-1.8±2.1	
CC1(C)CC[C@]2(C(=O)O)CC[C@]3(C)C(=CC[C@@H]4[C@@]5(C)CC[C@H](O)C(C)(C)[C@@H]5CC[C@]43C)[C@@H]2C1 [OA, oleanolic acid]										8 to 64

Source: paper PMC4102551, “Screening and Characterisation of Antimicrobial Properties of Semisynthetic Betulin Derivatives” (PLoS ONE, 2014)
